# From paper PMC5324278, “Novel synthetic analogues of avian β-defensin-12: the role of charge, hydrophobicity, and disulfide bridges in biological functions” (BMC Microbiology, 2017)
# Bridge positions count the residues as written; N and C are the ends. Square brackets hold non-standard residues; d marks the D form. Ends that are not written are not given here. Abu = CC[C@H](N)C(=O)O
# Test system: not given
# Test: not given
# Conditions: not given
row,Substance,"chemotactic activity, % of wild type AvBD-12"
1,GPRSANHKRGLARVGNANPGKYLAKYSFRPVILSSKPLSPTPTKT [AvBD-12A3],> 50%

# Test system: CCR2 transfected CHO-K1 cells
# Test: Chemotaxis assay, 48-well microchemotaxis chamber
# Type: cell-based, avian
# Conditions: Fig. 9; n = 5
row,Substance,chemotactic activity for CCR2-CHO-K1 cells (in words)
1,GPDS[Abu]NHDRGL[Abu]RVGN[Abu]NPGEYLAKY[Abu]FEPVIL[Abu][Abu]KPLSPTPTKT [AvBD-12A6],lost their chemotactic activity
2,GPRSANHKRGLARVGNANPGKYLAKYSFRPVILSSKPLSPTPTKT [AvBD-12A3],minimal chemotactic activity
3,GPHSANHVRGLARVGNANPGLYLAKYAFIPVILAAKPLSPTPTKT [AvBD-12A1],minimal chemotactic activity
4,GPDS[Abu]NHDRGL[Abu]RVGNCNPGEYLAKY[Abu]FEPVIL[Abu]CKPLSPTPTKT (disulfide 17-35) [AvBD-12A5],lost their chemotactic activity
5,"GPDSC^1NHDRGLC^2RVGNC^3NPGEYLAKYC^4FEPVILC^5C^6VRNRWA (bicyclic or more) [AvBD-12/6, group 3 hybrid peptide: backbone of AvBD-12 with amino acid residues of AvBD-6]",retained the chemotactic function
